Several values for one entry are separate records, joined by “and”; a condition that tells them apart may be missing. Equal entries are not always repeated.
Assays:
[1] = test system: hPXR mice; assay: DSS-induced acute colitis in hPXR mice; type: in vivo, mouse
Method: For these studies, 7‐ to 8‐week‐old female (DeVoss & Diehl, 2014) hPXR (mice expressing the human PXR gene) and pxr ^−/− mice (C57BL/6 background) were bred and each genotype was separated into two treatment groups using a random allocation method via coin toss—(i) n = 3 control (0.8% DMSO in 100 μl drinking water) and (ii) n = 3 FKK6 (200 μM (0.4 mg/kg/day) in 0.8% DMSO in 100 μl drinking water) administered once per day via oral gavage, and via intrarectal gavage for a total of 10 consecutive days The dose was chosen based on the extrapolation of the total dose delivered over 10 days to mice (~ 4 mg/kg), which is equivalent to that delivered to mice for determining target gene expression over 3–5 doses (3–5 mg/kg). […] Fecal pellets were collected prior to the initiation of the treatment protocol. All mice were starved overnight (12 h) to allow for smooth intrarectal delivery; however, the mice were allowed to feed ad libitum during the day. After 10 days, the mice were sacrificed and organs/tissues/feces harvested for further study. Prior to necropsy, mice were administered FITC‐dextran, and mouse serum was collected for the FITC‐dextran assay as previously described (Vetizou et al, 2015). The experimenter was not blinded to treatment allocation; however, the pathologist (KS) evaluating histologic scores was blinded to treatment allocation. All studies were approved by the Institute of Animal Studies at the Albert Einstein College of Medicine, INC (IACUC # 20160706 and preceding protocols). Colitis scoring was performed as previously published, and post‐examination masking was conducted (Kim et al, 2012; Meyerholz & Beck, 2018).
For RT–qPCR of colon tissue for cytokine expression data, new experiments were conducted with 3% DSS and the identical FKK6 dose (n = 3 mice/group) and scheduled as above. RT–qPCR was performed using PowerUp™ SYBR® Green Master Mix (A25741, Thermo Fisher Scientific) and primers specific for IL‐10, TNF‐α, TNFR2, and […]. Each target gene was analyzed in quadruplicate. Normalizing controls included GAPDH (used to illustrate data) and TBP.

[2] = target: T1, PARP 1 (Homo sapiens, UniProt P09874); assay: PARP assay (Reaction Biology); type: biochemical; conditions: replicates
T1 construct: purchased Reaction Biology Corp. (RBC) PAR-21-346
Method: The following […] assays (HDAC, SIRT1, PRMT1, PARP1, p300, pCAF) were performed by Reaction Biology Corp. FKK6 was screened at a single concentration of 10 μM in duplicate in two separate experiments. The appropriate controls for the individual assays are published. The overall […]
enzyme activity in the assay is reported as a % activity in DMSO control wells. Control IC50 […]
Briefly, for the Sirtuin (SIRT1) assay, human SIRT1 (GenBank
Accession No. NM012238) full -length N-terminal His-tag protein (MW 83.2 kDa) was purified after expression in E. coli. The reaction buffer was freshly prepared and constituted 50 mM Tris-HC l ( p H 8), 137 mM NaCl, 2.7 mM KCl, 1 mM MgCl2, and just before use, 1 mg/mL BSA and 1% DMSO was added. The substrate was a fluorogenic acetylated peptide of p53 residues 379-382 (RHKK (Ac)- AM C) . In th e multi-well format, the 2X enzyme was mixed with the reaction buffer followed by compound (in 100% DMSO) titration via Acoustic technology (Echo550; LabCyte Inc, Sunnyvale, CA) in the nanoliter range. The mixture was spun down and 2X substrate (including NAD+) was added to initiate the reaction at 30° C at 2h under seal. […] Fluorescence kinetic measurements were conducted for 1.5 h in 15 min intervals using Envision (Ex 360nm/Em 460nm). […] The compound mixture was placed on filter paper and washed with 0.75% phosphoric acid and radioactivity counted. […]

[3] = FKK6 200 μM, day 10, individual mice

T1 sequence (P09874 whole entry, species assumed): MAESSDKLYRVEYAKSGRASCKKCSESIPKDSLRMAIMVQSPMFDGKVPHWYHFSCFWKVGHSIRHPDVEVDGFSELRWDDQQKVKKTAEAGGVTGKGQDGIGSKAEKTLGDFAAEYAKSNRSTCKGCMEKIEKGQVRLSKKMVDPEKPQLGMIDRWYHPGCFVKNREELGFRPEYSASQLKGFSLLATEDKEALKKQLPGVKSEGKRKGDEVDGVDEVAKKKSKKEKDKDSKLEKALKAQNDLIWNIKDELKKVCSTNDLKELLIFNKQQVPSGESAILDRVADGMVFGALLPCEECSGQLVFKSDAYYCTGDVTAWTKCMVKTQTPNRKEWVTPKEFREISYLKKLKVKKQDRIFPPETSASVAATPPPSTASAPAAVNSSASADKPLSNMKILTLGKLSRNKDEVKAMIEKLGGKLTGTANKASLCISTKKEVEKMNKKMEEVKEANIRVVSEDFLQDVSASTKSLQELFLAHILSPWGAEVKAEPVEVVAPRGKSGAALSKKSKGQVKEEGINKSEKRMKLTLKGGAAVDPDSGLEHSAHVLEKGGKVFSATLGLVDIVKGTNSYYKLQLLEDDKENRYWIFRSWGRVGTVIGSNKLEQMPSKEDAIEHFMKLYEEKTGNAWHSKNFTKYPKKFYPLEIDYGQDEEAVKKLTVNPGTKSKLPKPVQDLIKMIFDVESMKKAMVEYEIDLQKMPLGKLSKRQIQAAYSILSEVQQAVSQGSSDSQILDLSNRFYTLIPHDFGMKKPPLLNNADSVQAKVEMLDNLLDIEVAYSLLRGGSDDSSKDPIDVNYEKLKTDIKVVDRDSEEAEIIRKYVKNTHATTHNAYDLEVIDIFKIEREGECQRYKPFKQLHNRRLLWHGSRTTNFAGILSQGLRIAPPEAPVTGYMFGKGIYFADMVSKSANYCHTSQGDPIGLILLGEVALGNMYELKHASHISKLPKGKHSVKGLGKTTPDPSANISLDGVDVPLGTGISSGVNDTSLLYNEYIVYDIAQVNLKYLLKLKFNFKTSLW

For `C#CCC(O)(c1ccncc1)c1cc2ccccc2n1S(=O)(=O)c1ccccc1` (centres unmarked) [FKK6], the “colon tissue IL-10 mRNA” value ([1]; 3% DSS, FKK6 vs controls) was “significant increase”, the “colon tissue TNF-α mRNA” value ([1]; 3% DSS, FKK6 vs controls) was “decrease” and the “colon tissue TNFR2 mRNA” value ([1]; 3% DSS, FKK6 vs controls) was “decrease”. For the same molecule, the “colon tissue IL-17f mRNA” value ([1]; 3% DSS, FKK6 vs vehicle) was “significant reduction”, the “fecal lipocalin 2” value ([1]; FKK6 200 μM) was “only a trend in the reduction” and the “serum FITC-dextran” value ([1]; FKK6 200 μM) was “only a trend in the reduction”. The “% weight loss from baseline (day 1 vs. day 10)” value ([1]; FKK6 200 μM oral gavage plus intrarectal, once daily 10 days, individual mice) was “significantly reduced weight loss and 20% and 16%”, the colon length [1, 3] was “increased colon length and 5.2 cm and 5.6 cm and 5.1 cm” and the inflammation score [1, 3] was “substantially decreased and 3 and 5”. The “% Enzyme Activity to DMSO controls” value ([2]; 10 μM) was 98.25% and 91.38% and 91.03% and the remaining activity at 10 µM ([2]; read-out: % Enzyme Activity to DMSO controls) was 99.2%.

From article PMC7136958, “Targeting the pregnane X receptor using microbial metabolite mimicry” (EMBO Molecular Medicine, 2020)
